# Patent US6231887A, “Pharmaceutical composition for acidic lipophilic compounds in a form of a self-emulsifying formulation” (priority 1998, dated 2001)
# Columns and labels:
# [1] = Aqueous solubility in buffer; assay type: physicochemical; settings: buffer of pH 6.5 (close to the pH of the intestine), free acid
# retroviral protease = settings: qualitative statement; compounds disclosed in WO 95/30670; cited from earlier work
smiles,measurement,setting,value
CCC[C@@]1(CCc2ccccc2)CC(O)=C([C@H](CC)c2cccc(NS(=O)(=O)c3ccc(C(F)(F)F)cn3)c2)C(=O)O1 [compound of formula I],solubility,[1],~1 µg/mL
same,effectiveness as an inhibitor of retroviral protease,retroviral protease,especially effective
